Results: patent publication US20240376091A1, “THIADIAZOLEAMIDE DERIVATIVES AND THEIR APPLICATIONS” (ZHEJIANG UNIVERSITY, priority 2021, published 2024)
pIC50: −log10 of the molar value.

Target: T1, AR (Homo sapiens, UniProt P10275, T878A)
T1 construct: into the androgen-dependent PCa cells (LNCaP); endogenous in cells; host or cells: LNCaP-ARR2PB-eGFP
T1 sequence (P10275 1-920 T878A): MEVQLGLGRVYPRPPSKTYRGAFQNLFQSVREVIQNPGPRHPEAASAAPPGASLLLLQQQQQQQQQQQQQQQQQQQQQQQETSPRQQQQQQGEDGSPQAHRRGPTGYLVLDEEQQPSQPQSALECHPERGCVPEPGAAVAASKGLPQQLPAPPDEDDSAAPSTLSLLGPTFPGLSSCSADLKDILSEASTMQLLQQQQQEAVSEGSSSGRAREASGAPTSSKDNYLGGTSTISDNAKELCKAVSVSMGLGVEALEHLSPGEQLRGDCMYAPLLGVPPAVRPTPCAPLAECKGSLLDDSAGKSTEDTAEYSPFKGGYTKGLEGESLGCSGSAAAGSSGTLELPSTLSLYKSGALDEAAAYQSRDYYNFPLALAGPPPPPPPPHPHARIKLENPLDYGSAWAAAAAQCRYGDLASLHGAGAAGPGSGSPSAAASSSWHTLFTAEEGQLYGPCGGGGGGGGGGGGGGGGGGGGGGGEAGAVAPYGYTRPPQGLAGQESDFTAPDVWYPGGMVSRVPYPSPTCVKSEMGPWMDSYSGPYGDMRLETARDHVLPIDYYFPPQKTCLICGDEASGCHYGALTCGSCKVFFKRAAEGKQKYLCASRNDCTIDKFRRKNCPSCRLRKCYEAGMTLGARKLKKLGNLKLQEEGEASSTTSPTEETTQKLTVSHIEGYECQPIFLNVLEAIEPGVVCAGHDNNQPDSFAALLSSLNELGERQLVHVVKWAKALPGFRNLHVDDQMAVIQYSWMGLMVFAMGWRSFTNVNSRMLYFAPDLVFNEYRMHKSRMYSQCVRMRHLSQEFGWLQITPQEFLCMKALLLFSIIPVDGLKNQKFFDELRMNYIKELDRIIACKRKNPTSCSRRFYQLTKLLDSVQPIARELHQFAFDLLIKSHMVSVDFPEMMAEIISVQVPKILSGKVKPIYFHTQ
Test: AR transcriptional activity, LNCaP-ARR2PB-eGFP reporter cells
Type: cell-based
Conditions: read-out: IC50 AR transcriptional activities
Description: Detection principles: We conducted a stable transfection of promoter ARR2PB known for its strong AR responsiveness, into the androgen-dependent PCa cells (LNCaP). The expression of enhanced green fluorescent protein (eGFP) is depending on the degree of activation of AR. Therefore, LNCaP-ARR2PB-eGFP cell line could quantitatively determine the AR antagonistic activities of the compounds by evaluating the expression of eGFP.

CC(=O)Cc1nsc(NC(=O)c2csc(-c3cccc(C(F)(F)F)c3)c2)n1 [Compound D-1, N-(3-(2-oxopropyl)-1,2,4-thiadiazol-5-yl)-5-(3-(trifluoromethyl)phenyl)thiophene-3-carboxamide]
pIC50: 4.60

CC(=O)Cc1nsc(NC(=O)c2csc(-c3cccc(C#N)c3)c2)n1 [Compound D-2, 5-(3-Cyanophenyl)-N-(3-(2-oxopropyl)-1,2,4-thiadiazol-5-yl)thiophene-3-carboxamide]
pIC50: 4.49

COc1cccc(-c2cc(C(=O)Nc3nc(CC(C)=O)ns3)cs2)c1 [Compound D-3, 5-(3-Methoxyphenyl)-N-(3-(2-oxopropyl)-1,2,4-thiadiazol-5-yl)thiophene-3-carboxamide]
pIC50: 4.87

CC(=O)Cc1nsc(NC(=O)c2csc(-c3cccc(OC(F)(F)F)c3)c2)n1 [Compound D-4, N-(3-(2-oxopropyl)-1,2,4-thiadiazol-5-yl)-5-(3-(trifluoromethoxy)phenyl)thiophene-3-carboxamide]
pIC50: 4.38

CC(=O)Cc1nsc(NC(=O)c2csc(-c3cccc(OC(F)F)c3)c2)n1 [Compound D-5, 5-(3-(Difluoromethoxy)phenyl)-N-(3-(2-oxopropyl)-1,2,4-thiadiazol-5-yl)thiophene-3-carboxamide]
pIC50: 4.40

CC(Cc1nsc(NC(=O)c2csc(-c3cccc(C(F)(F)F)c3)c2)n1)N(C)C [Compound D-6, N-(3-(2-(dimethylamino)propyl)-1,2,4-thiadiazol-5-yl)-5-(3-(trifluoromethyl)phenyl)thiophene-3-carboxamide]
pIC50: 4.36

CCN(CC)C(C)Cc1nsc(NC(=O)c2csc(-c3cccc(C(F)(F)F)c3)c2)n1 [Compound D-7, N-(3-(2-(diethylamino)propyl)-1,2,4-thiadiazol-5-yl)-5-(3-(trifluoromethyl)phenyl)thiophene-3-carboxamide]
pIC50: 4.64

CC(Cc1nsc(NC(=O)c2csc(-c3cccc(C#N)c3)c2)n1)N1CCCC1 [Compound D-12, 5-(3-Cyanophenyl)-N-(3-(2-(pyrrolidin-1-yl)propyl)-1,2,4-thiadiazol-5-yl)thiophene-3-carboxamide]
pIC50: 4.89

COc1cccc(-c2cc(C(=O)Nc3nc(CC(C)N4CCCCC4)ns3)cs2)c1 [Compound D-14, 5-(3-Methoxyphenyl)-N-(3-(2-(piperidin-1-yl)propyl)-1,2,4-thiadiazol-5-yl)thiophene-3-carboxamide]
pIC50: 4.43

CC(Cc1nsc(NC(=O)c2csc(-c3cccc(OC(F)(F)F)c3)c2)n1)N1CCOCC1 [Compound D-16, N-(3-(2-morpholinopropyl)-1,2,4-thiadiazol-5-yl)-5-(3-(trifluoromethoxy)phenyl)thiophene-3-carboxamide]
pIC50: 4.62

CC(Cc1nsc(NC(=O)c2csc(-c3cccc(OC(F)F)c3)c2)n1)N1CCN(C)CC1 [Compound D-19, 5-(3-(Difluoromethoxy)phenyl)-N-(3-(2-(4-methylpiperazin-1-yl)propyl)-1,2,4-thiadiazol-5-yl)thiophene-3-carboxamide]
pIC50: 4.72

CC(O)Cc1nsc(NC(=O)c2csc(-c3cccc(C(F)(F)F)c3)c2)n1 [Compound D-20, N-(3-(2-hydroxypropyl)-1,2,4-thiadiazol-5-yl)-5-(3-(trifluoromethyl)phenyl)thiophene-3-carboxamide]
pIC50: 4.74

CC(O)(Cc1nsc(NC(=O)c2csc(-c3cccc(C(F)(F)F)c3)c2)n1)C(F)(F)F [Compound D-25, N-(3-(3,3,3-trifluoro-2-hydroxy-2-methylpropyl)-1,2,4-thiadiazol-5-yl)-5-(3-(trifluoro-methyl)phenyl)thiophene-3-carboxamide]
pIC50: 4.48

CC(Cc1nsc(NC(=O)c2csc(-c3cccc(C(F)(F)F)c3)c2)n1)=C(F)F [Compound D-30, N-(3-(3,3-difluoro-2-methylallyl)-1,2,4-thiadiazol-5-yl)-5-(3-(trifluoromethyl)phenyl)thiophene-3-carboxamide]
pIC50: 4.46

CC(F)(F)Cc1nsc(NC(=O)c2csc(-c3cccc(C(F)(F)F)c3)c2)n1 [Compound D-35, N-(3-(2,2-difluoropropyl)-1,2,4-thiadiazol-5-yl)-5-(3-(trifluoromethyl)phenyl)thiophene-3-carboxamide]
pIC50: 4.31

O=C(Nc1nc(CCl)ns1)c1csc(-c2cccc(C(F)(F)F)c2)c1 [Compound D-40, N-(3-(chloromethyl)-1,2,4-thiadiazol-5-yl)-5-(3-(trifluoromethyl)phenyl)thiophene-3-carboxamide]
pIC50: 4.67

CN(C)Cc1nsc(NC(=O)c2csc(-c3cccc(C#N)c3)c2)n1 [Compound D-47, 5-(3-Cyanophenyl)-N-(3-((dimethylamino)methyl)-1,2,4-thiadiazol-5-yl)thiophene-3-carboxamide]
pIC50: 4.60

CCN(CC)Cc1nsc(NC(=O)c2csc(-c3cccc(OC)c3)c2)n1 [Compound D-50, N-(3-((diethylamino)methyl)-1,2,4-thiadiazol-5-yl)-5-(3-methoxyphenyl)thiophene-3-carboxamide]
pIC50: 4.82

O=C(Nc1nc(CN2CCCC2)ns1)c1csc(-c2cccc(OC(F)(F)F)c2)c1 [Compound D-53, N-(3-(pyrrolidin-1-ylmethyl)-1,2,4-thiadiazol-5-yl)-5-(3-(trifluoromethoxy)phenyl)thiophene-3-carboxamide]
pIC50: 4.56

O=C(Nc1nc(CN2CCCCC2)ns1)c1csc(-c2cccc(OC(F)F)c2)c1 [Compound D-56, 5-(3-(Difluoromethoxy)phenyl)-N-(3-(piperidin-1-ylmethyl)-1,2,4-thiadiazol-5-yl)thiophene-3-carboxamide]
pIC50: 4.38

O=C(Nc1nc(CN2CCOCC2)ns1)c1csc(-c2cccc(OC(F)F)c2)c1 [Compound D-57, 5-(3-(Difluoromethoxy)phenyl)-N-(3-(morpholinomethyl)-1,2,4-thiadiazol-5-yl)thiophene-3-carboxamide]
pIC50: 4.82

CN1CCN(Cc2nsc(NC(=O)c3csc(-c4cccc(OC(F)F)c4)c3)n2)CC1 [Compound D-58, 5-(3-(Difluoromethoxy)phenyl)-N-(3-((4-methylpiperazin-1-yl)methyl)-1,2,4-thiadiazol-5-yl)thiophene-3-carboxamide]
pIC50: 4.62

CC(=O)Cc1nsc(NC(=O)c2cc(-c3cccc(C(F)(F)F)c3)oc2C(F)(F)F)n1 [Compound E-1, N-(3-(2-oxopropyl)-1,2,4-thiadiazol-5-yl)-2-(trifluoromethyl)-5-(3-(trifluoro-methyl)phenyl)furan-3-carboxamide]
pIC50: 5.97

CC(=O)Cc1nsc(NC(=O)c2cc(-c3cccc(C#N)c3)oc2C(F)(F)F)n1 [Compound E-2, 5-(3-Cyanophenyl)-N-(3-(2-oxopropyl)-1,2,4-thiadiazol-5-yl)-2-(trifluoromethyl)furan-3-carboxamide]
pIC50: 5.65

COc1cccc(-c2cc(C(=O)Nc3nc(CC(C)=O)ns3)c(C(F)(F)F)o2)c1 [Compound E-3, 5-(3-Methoxyphenyl)-N-(3-(2-oxopropyl)-1,2,4-thiadiazol-5-yl)-2-(trifluoromethyl)furan-3-carboxamide]
pIC50: 6.24

CC(=O)Cc1nsc(NC(=O)c2cc(-c3cccc(OC(F)(F)F)c3)oc2C(F)(F)F)n1 [Compound E-4, N-(3-(2-oxopropyl)-1,2,4-thiadiazol-5-yl)-5-(3-(trifluoromethoxy)phenyl)-2-(trifluoro-methyl)furan-3-carboxamide]
pIC50: 6.26
